US20080311266A1, “Salt Enhancement” (priority 2007, published 2008)

Legend:
[1] = Cooling threshold (level at which cooling effect detected); format: in vivo
tasting panel = assay: Tasting panel test of perceived saltiness in salt-reduced broth; format: in vivo; conditions: for Level at which saltiness increase perceived / Effect on the perceived saltiness: salt-reduced broth, tasting panel; for Effect on the perceived saltiness: in words; for Upper threshold value for salt enhancement: stated in description
Method: A variety of compounds (listed in the table above) was tested in a salt-reduced broth. The compounds concerned were simply added to samples of the broth in a variety of concentrations and stirred in. The samples were tested by their being submitted to a tasting panel, which recorded its perceptions as to which sample (and therefore at what level of compound) a perception of increased saltiness was observed. The results are recorded in the table in the specification above.

| SMILES | Threshold level at which cooling effect detected - estimated [1] [ppm] | Level at which saltiness increase perceived (tasting panel) [ppm] | Effect on the perceived saltiness (tasting panel) | Upper threshold value for salt enhancement (tasting panel) [ppm] |
| --- | --- | --- | --- | --- |
| CC(C)[C@@H]1CC[C@@H](C)C[C@H]1C(=O)NCCc1ccccn1 [Compound 2, (1R,2S,5R)-2-isopropyl-5-methyl-N-(2-(pyridin-2-yl)ethyl)cyclohexanecarboxamide] | 0.08 | 0.005 | considerably greater effect | 0.005 |
| CC1CCC(C(C)C)C(O)C1 (stereo not shown) [Menthol, menthol] | 1.5 | 0.05 |  |  |
| CCNC(=O)C1CC(C)CCC1C(C)C (stereo not shown) [WS3] | 1 | 0.05 |  |  |
| CC1CCC(C(C)C)C(C(=O)Nc2ccc(CC#N)cc2)C1 (stereo not shown) [Compound 1, N-(4-cyanomethylphenyl) p-menthanecarboxamide] | 0.08 | 0.005 | considerably greater effect | 0.005 |
| CNC(=O)C(C)(C(C)C)C(C)C [WS23] | 1.5 | 0.05 |  |  |
| CC1CCC(C(C)C)C(OC(=O)C(C)O)C1 (stereo not shown) [menthyl lactate] | 0.8 | 0.05 |  |  |
